Six molecules from US20060110456A1, “Method for biocidal and/or biostatic treatment and compositions therefor” (NATIONAL UNIVERSITY OF SINGAPORE, priority 2004, published 2006) can be followed below.

For the assay, the system named is biofilm bacteria (strains 4, 9, 14, 20, 27, 28). Nature of the assay: Effect of pharmaceuticals on adhesion of bacteria to plastic / biofilm formation on NTC and TC plates. The format is cell-based, marine bacteria isolated from Singapore fouling communities. As to conditions: for Effect on formation of bacterial biofilms on NTC and TC plates: 25 ug ml−1, NTC = untreated polystyrene, TC = tissue-culture treated, strains 4, 9, 14, 20, 27, 28; for Prevention of formation of biofilm: crude rank, best (1) to worst (8). Here is the method: Commercial forms of pharmaceuticals were used as previously described. […] These samples were sonicated for at least 1 min and these fine suspensions were used as initial stock solutions.
For studies of bacterial adhesion, the pharmaceuticals were first sterilized by soaking in absolute alcohol (Merck) for half an hour. Ethanol was removed by air-drying with air passed through 0.25 μm pore size syringe filter (Sartorius, Germany). Stock solutions were concentrations of 100 μg ml−1 in SDI.
The effect of pharmaceuticals on bacterial adhesion was analyzed using a modified microplate method adapted from Shea and Williamson (1990). This method employs a combination of staining attached bacteria with crystal violet, releasing the stain with sodium desoxycholate, and measuring the resulting absorbance of the crystal violet.
Detailed results for six selected strains are presented here: strains 4, 9, 14, 20, 27, 28. The bacterial strains were grown in Marine Broth (Pronadisa, Spain) overnight, in the dark, at 28° C. on a rotary shaker (150 rpm) in 5 ml centrifuge tubes (Falcon). Cells were harvested by centrifugation (1500×g, 10 min) and resuspended in sterile seawater (SSW). SSW was prepared by filtering seawater through a 0.2 μm pore size filter (Sartorius) followed by autoclaving. The cells were centrifuged and resuspended once more in SSW. The concentration of resuspended cells was adjusted to A600=1.0 using a spectrophotometer (Beckman DU530, USA).
Flat bottom 96 well polystyrene (hydrophobic, Falcon 351172) (=NTC) and tissue-culture treated polystyrene (hydrophilic, Falcon 353072) (=TC) microplates were used in the analyses. Each test was performed in triplicate. Two sets of experiments were conducted. […] For the control and blank wells, 25 ul of SDI were added. For wells containing pharmaceuticals, 25 ul of the respective pharmaceutical at a concentration of 100 ug ml−1 were added. This was immediately followed by the addition of 75 ul of bacterial suspension. To blanks were added 75 ul of SSW.
The bacterial cells in suspension were allowed to attach for 2 h at 28° C. Unattached cells were removed by aspiration using a plate washer (Tecan, Austria) and wells were rinsed three times with 200 ul of SSW each time. The attached cells were stained with 200 ul of crystal violet solution (0.1% w/v in deionized water) in each well for 5 min. After removing the stain using the plate washer, the wells were rinsed twice with 300 ul of SDI each time. Sodium desoxycholate (200 ul) solution (2% w/v in deionized water) was added to each well to extract the crystal violet from the attached stained cells for 10 min. The absorbance of the crystal violet was read at 590 nm using a microplate reader (Sunrise, Tecan, Austria).
Results of the adhesion assay were obtained by the difference in absorbance readings between wells containing bacterial cells and the mean of absorbance of those containing the SSW only. The effect of the pharmaceuticals on bacterial adhesion was determined by the examining the differences in absorbance between the wells containing the pharmaceuticals+bacteria and the bacteria. The significance was compared using T-test.

“Also recorded” adds a separate entry of the source. Counter-ions that a name gives are not always drawn.

`CCCCCCCCCC(=O)OC1(c2ccc(Cl)cc2)CCN(CCCC(=O)c2ccc(F)cc2)CC1` [HDL, haloperidol decanoate]: the “Effect on formation of bacterial biofilms on NTC and TC plates” value (from here on “Effect on formation”) is given as “no significant difference from control; also recorded: On TC, there was a slight reduction in biofilm formation for strain 28 (p<0.1); also recorded: No significant reduction in biofilm formation was observed for most strains, except for strain 28, where there appears to be a slight effect (0.05<p<0.1)”; the “Prevention of formation of biofilm” value came to 6.
On to `CN(C)C(=O)C(CCN1CCC(O)(c2ccc(Cl)cc2)CC1)(c1ccccc1)c1ccccc1` [IMD, Loperamide hydrochloride], for which the “Prevention of formation of biofilm” value is given as 7. The “Effect on formation” value (hydrochloride) was “On NTC, there was a slight reduction in strain 28; also recorded: reduction of biofilm growth in strain 28 on NTC but not on TC”.
For the molecule `Cc1cc2c(s1)Nc1ccccc1N=C2N1CCN(C)CC1` [ZPX, olanzapine], the “Effect on formation” value was “prevented biofilm formation for all 6 strains in the NTC plates, and slightly reduced the biofilm formation in strains 4 on the TC plates; also recorded: marked reduction of biofilm growth for all strains on NTC, but only a slight reduction for strain 4 on TC”; the “Prevention of formation of biofilm” value was found to be 1.
`CN[C@H]1CC[C@@H](c2ccc(Cl)c(Cl)c2)c2ccccc21.Cl` [ZLT, sertraline hydrochloride]: the “Prevention of formation of biofilm” value is on record as 3. Further, for the setting “hydrochloride”, the “Effect on formation” value is recorded as “Biofilm formation was reduced for most strains except strain 14; also recorded: reduction of biofilm growth for most strains (except strain 14) on NTC, but only for strain 28 on TC”.
As for `Cc1nccn1CC1CCc2c(c3ccccc3n2C)C1=O` (stereo not drawn) [ZFN, ondansetron hydrochloride], the “Prevention of formation of biofilm” value came to 2. The “Effect on formation” value (hydrochloride) is “reduced bacterial adhesion of the 6 strains to the NTC plates; also recorded: only slight activity (p<0.1) against strain 4 on the TC plates; also recorded: marked reduction of biofilm growth for most on NTC but not on TC”.
On the same counts, the results for `CN1CCN(C(c2ccccc2)c2ccccc2)CC1` [CYZ, Cyclizine hydrochloride] are 8 and “significantly more bacteria adhesion for strain 9; also recorded: No significant reduction in biofilm formation”.
